According to patent US7053070B2, “Pyrido[2,3-d]pyrimidine-2,7-diamine kinase inhibitors” (Warner-Lambert Company, priority 2000, dated 2006):

Tests used:
[1] = biological target: T1, FGF-1 (flg) receptor tyrosine kinase (FGFr) (Homo sapiens, UniProt P11362); assay: FGF Receptor Tyrosine Kinase Assay; format: biochemical; conditions: glutamate-tyrosine co-polymer substrate; for IC50: read-out: Inhibition of Tyrosine Kinases: IC50 in parenthesis FGFr; for inhibition at 50 µM: at 50 μM compound, read-out: Inhibition of Tyrosine Kinases: % Inhibition at 50 μM FGFr
T1 construct: amplify a fragment of DNA that codes for the intracellular tyrosine kinase domain; made in house; host or cells: SF9 insect cells (baculovirus); crude cell lysate used
From the text: (§1) PDGF and FGF Receptor Tyrosine Kinase Assays
(§2) Full-length cDNAs for the mouse PDGF-β and human FGF-1 (flg) receptor tyrosine kinases are obtained from J. Escobedo and prepared as described in J. Biol. Chem. 1991; 262:1482-1487. PCR primers are designed to amplify a fragment of DNA that codes for the intracellular tyrosine kinase domain. The fragment is inserted into a baculovirus vector, cotransfected with AcMNPV DNA, and the recombinant virus isolated. SF9 insect cells are infected with the virus to overexpress the protein, and the cell lysate is used for the assay. Assays are performed in 96-well plates (100 μL/incubation/well), and conditions are optimized to measure the incorporation of ^32P from γ^32P-ATP into a glutamate-tyrosine co-polymer substrate. Briefly, to each well is added 82.5 μL of incubation buffer containing 25 mM Hepes (pH 7.0), 150 mM NaCl, 0.1% Triton X-100, 0.2 mM PMSF, 0.2 mM Na3VO4, 10 mM MnCl2, and 750 μg/mL of Poly (4:1) glutamate-tyrosine followed by 2.5 μL of inhibitor and 5 μL of enzyme lysate (7.5 μg/μL FGF-TK or 6.0 μg/μL PDGF-TK) to initiate the reaction. Following a 10-minute incubation at 25° C. […] of γ^32P-ATP (0.4 μCi plus 50 μM ATP) is added to each well, and samples are incubated for an additional 10 minutes at 25° C. The reaction is terminated by the addition of 100 μL of 30% trichloroacetic acid (TCA) containing 20 mM sodium pyrophosphate and precipitation of material onto glass fiber mats (Wallac). Filters are washed 3 times with 15% TCA containing 100 mM sodium pyrophosphate, and the radioactivity retained on the filters counted in a Wallac 1250 Betaplate reader. Nonspecific activity is defined as radioactivity retained on the filters following incubation of samples with buffer alone (no enzyme). Specific enzymatic activity (enzyme plus buffer) is defined as total activity minus nonspecific activity.

cdk2/cyclinA = cdk2/cyclinA (Homo sapiens, UniProt P24941); assay: Cyclin dependent kinase 2 assay (cdk2/cyclinA), 32P incorporation, filter plate; format: biochemical; conditions: retinoblastoma substrate, 12 mM ATP, 25° C., 15 minutes; read-out: Inhibition of Cdks: IC50 Cdk2/A
How it was run: (§3)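 Radiometric filter assay: 20 ng cdk1/B, cdk2/A or cdk2/E with 1 μg retinoblastoma substrate in 20 mM Tris pH 7.4, 50 mM NaCl, 1 mM DTT, 10 mM MgCl2, […] plus [32P]ATP. Started with ATP, 15 min at 25 °C, stopped and precipitated with TCA; 32P incorporation counted for IC50.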

cdk4/cyclinD = cdk4/cyclinD (Homo sapiens, UniProt P11802); assay: Cyclin Dependent Kinase 4 (cdk-4) Assay, 32P incorporation, filter plate; format: biochemical; conditions: retinoblastoma substrate, 25 μM ATP, 25° C., 15 minutes; read-out: Inhibition of Cdks: IC50 Cdk4D
How it was run: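 Filter-plate radiometric assay for IC50s: 20 ng cdk4 with 1 μg retinoblastoma substrate in 20 mM TRIS pH 7.4, 50 mM NaCl, 1 mM DTT, 10 mM MgCl2. Started with 25 μM ATP plus [32P]ATP and run 15 min at 25° C, then stopped with TCA. Precipitated substrate was washed and 32P incorporation counted.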

cdk1/cyclinB = cdk1/cyclinB (Homo sapiens, UniProt P06493); assay: Cyclin dependent kinase 1 assay (cdk1/cyclinB), 32P incorporation, filter plate; format: biochemical; conditions: retinoblastoma substrate, 12 mM ATP, 25° C., 15 minutes; read-out: Inhibition of Cdks: IC50 Cdk1/B
How it was run: as §3

cdk2/cyclinE = cdk2/cyclinE (Homo sapiens, UniProt P24941); assay: Cyclin dependent kinase 2 assay (cdk2/cyclinE), 32P incorporation, filter plate; format: biochemical; conditions: retinoblastoma substrate, 12 mM ATP, 25° C., 15 minutes; read-out: Inhibition of Cdks: IC50 Cdk2/E
How it was run: as §3

[2] = biological target: T2, PDGF-β receptor tyrosine kinase (PDGFr) (Mus musculus, UniProt P05622); assay: PDGF Receptor Tyrosine Kinase Assay; format: biochemical; conditions: glutamate-tyrosine co-polymer substrate; for IC50: read-out: Inhibition of Tyrosine Kinases: IC50 in parenthesis PDGFr; for inhibition at 50 µM: at 50 μM compound, read-out: Inhibition of Tyrosine Kinases: % Inhibition at 50 μM PDGFr
T2 construct: amplify a fragment of DNA that codes for the intracellular tyrosine kinase domain; made in house; host or cells: SF9 insect cells (baculovirus); crude cell lysate used
From the text: as §1, §2

Sequence of cdk4/cyclinD (P11802 whole entry, species assumed): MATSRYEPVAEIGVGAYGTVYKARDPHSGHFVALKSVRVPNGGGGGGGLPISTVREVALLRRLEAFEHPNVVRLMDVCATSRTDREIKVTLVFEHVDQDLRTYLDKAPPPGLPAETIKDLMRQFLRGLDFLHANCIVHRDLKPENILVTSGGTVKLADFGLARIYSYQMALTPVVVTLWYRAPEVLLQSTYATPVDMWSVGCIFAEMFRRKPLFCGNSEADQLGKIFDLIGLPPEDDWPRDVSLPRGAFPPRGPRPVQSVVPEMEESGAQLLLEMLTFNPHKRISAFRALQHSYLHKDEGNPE
Sequence of cdk4/cyclinD (P24385 whole entry partner, species assumed): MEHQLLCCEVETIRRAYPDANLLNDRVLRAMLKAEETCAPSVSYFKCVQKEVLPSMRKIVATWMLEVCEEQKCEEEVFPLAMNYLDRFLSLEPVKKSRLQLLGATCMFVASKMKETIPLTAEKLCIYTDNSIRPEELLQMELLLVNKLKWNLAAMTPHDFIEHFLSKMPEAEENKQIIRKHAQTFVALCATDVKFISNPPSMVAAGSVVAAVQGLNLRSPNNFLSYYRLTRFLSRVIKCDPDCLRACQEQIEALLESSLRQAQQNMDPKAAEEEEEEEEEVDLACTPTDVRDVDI
Sequence of cdk1/cyclinB (P06493 whole entry, species assumed): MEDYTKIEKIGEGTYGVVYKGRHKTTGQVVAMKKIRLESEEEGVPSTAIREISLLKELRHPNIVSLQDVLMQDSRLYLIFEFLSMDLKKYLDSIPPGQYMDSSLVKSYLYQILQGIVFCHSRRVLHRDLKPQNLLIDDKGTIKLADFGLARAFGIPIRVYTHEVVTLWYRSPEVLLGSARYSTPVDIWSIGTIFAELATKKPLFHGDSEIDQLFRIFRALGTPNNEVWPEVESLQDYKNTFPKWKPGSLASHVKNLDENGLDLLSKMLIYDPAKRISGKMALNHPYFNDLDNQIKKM
Sequence of cdk1/cyclinB (P14635 whole entry partner, species assumed): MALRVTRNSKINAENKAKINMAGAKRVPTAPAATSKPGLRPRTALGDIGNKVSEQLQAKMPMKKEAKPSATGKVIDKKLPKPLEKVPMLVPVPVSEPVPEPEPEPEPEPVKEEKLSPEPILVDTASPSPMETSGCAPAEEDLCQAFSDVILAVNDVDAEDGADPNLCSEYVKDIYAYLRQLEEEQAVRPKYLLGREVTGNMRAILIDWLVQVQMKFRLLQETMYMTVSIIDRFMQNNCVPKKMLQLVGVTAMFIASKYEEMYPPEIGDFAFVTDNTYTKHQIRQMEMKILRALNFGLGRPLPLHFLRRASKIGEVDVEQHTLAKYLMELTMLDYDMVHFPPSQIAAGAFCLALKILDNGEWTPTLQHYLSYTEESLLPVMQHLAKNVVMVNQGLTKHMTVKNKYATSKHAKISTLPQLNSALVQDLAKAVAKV
T2 sequence (P05622 599-961 limits assumed): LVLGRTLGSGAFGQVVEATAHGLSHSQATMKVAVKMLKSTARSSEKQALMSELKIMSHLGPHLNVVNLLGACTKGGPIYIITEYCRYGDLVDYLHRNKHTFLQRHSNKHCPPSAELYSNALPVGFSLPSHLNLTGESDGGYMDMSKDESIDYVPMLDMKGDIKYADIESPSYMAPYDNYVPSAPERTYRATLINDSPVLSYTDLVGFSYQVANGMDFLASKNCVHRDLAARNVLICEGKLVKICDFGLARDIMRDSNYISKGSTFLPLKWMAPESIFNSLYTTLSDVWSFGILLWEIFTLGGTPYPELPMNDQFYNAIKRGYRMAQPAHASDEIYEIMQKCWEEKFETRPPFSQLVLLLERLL
T1 sequence (P11362 478-767 limits assumed): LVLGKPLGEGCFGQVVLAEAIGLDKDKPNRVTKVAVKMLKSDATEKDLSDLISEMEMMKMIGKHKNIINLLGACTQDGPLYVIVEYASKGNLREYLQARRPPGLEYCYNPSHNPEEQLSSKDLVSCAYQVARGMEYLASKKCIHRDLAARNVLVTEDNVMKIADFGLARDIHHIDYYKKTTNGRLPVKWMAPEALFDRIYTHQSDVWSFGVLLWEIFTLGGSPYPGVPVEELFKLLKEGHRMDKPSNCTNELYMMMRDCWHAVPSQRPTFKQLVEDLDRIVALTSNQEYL

melting point	IC50 [1]	IC50 (cdk2/cyclinA)	IC50 (cdk4/cyclinD)	IC50 (cdk1/cyclinB)	IC50 (cdk2/cyclinE)	IC50 [2]	inhibition at 50 µM [1]	inhibition at 50 µM [2]	SMILES
230 °C (dec.)	–	–	> 5000 nM	75 nM	300 nM	–	19.5%	17.5%	Cc1cc(Nc2ncc3ccc(NC(=O)NC(C)(C)C)nc3n2)ccc1F [Compound 46, 1-tert-Butyl-3-[2-(4-fluoro-3-methyl-phenylamino)-pyrido[2,3-d]pyrimidin-7-yl]-urea]
241 °C (dec.)	–	92 nM	460 nM	461 nM	230 nM	–	18.6%	–	CC(C)(C)OC(=O)N1CCN(c2ccc(Nc3ncc4ccc(NC(=O)NC5CCCCC5)nc4n3)cc2)CC1 [Compound 80]
227 °C (dec.)	–	54 nM	45 nM	552 nM	110 nM	–	67.4%	21.9%	CC(C)(C)NC(=O)Nc1ccc2cnc(Nc3ccccc3)nc2n1 [Compound 45, 1-tert-Butyl-3-(2-phenylamino-pyrido[2,3-d]pyrimidin-7-yl)-urea]
> 250 °C	–	> 5000 nM	> 5000 nM	> 5000 nM	> 5000 nM	–	10.5%	–	Cc1cc(Nc2ncc3ccc(NC(=O)Nc4ccc(Cl)cc4)nc3n2)ccc1F [Compound 47, 1-(4-Chloro-phenyl)-3-[2-(4-fluoro-3-methyl-phenylamino)-pyrido[2,3-d]pyrimidin-7-yl]-urea]

Continued, compound first:

SMILES	melting point	IC50 [1]	IC50 (cdk2/cyclinA)	IC50 (cdk4/cyclinD)	IC50 (cdk1/cyclinB)	IC50 (cdk2/cyclinE)	IC50 [2]	inhibition at 50 µM [1]	inhibition at 50 µM [2]
CN(C(=O)NC1CCCCC1)c1ccc2cnc(Nc3ccc(N4CCNCC4)cc3)nc2n1 [Compound 70, 3-Cyclohexyl-1-methyl-1-[2-(4-piperazin-1-yl-phenylamino)-pyrido[2,3-d]pyrimidin-7-yl]-urea]	169 to 175 °C	1150 nM	697 nM	17 nM	1450 nM	530 nM	536 nM	–	–
O=C(Nc1ccc2cnc(Nc3ccc(N4CCNCC4)cc3)nc2n1)NC1CCCCC1 [Compound 9, 1-Cyclohexyl-3-[2-(4-piperazin-1-yl-phenylamino)-pyrido[2,3-d]pyrimidin-7-yl]-urea]	–	–	10 nM	5 nM	27 nM	20 nM	–	89.8%	–
O=C(Nc1nc2nc(Nc3ccc(N4CCNCC4)cc3)ncc2cc1F)NC1CCCCC1 [Compound 11, 1-Cyclohexyl-3-[6-fluoro-2-(4-piperazin-1-yl-phenylamino)-pyrido[2,3-d]pyrimidin-7-yl]-urea]	–	284 nM	92 nM	11 nM	159 nM	125 nM	131 nM	–	–
O=C(Nc1nc2nc(Nc3ccc(N4CCNCC4)cc3)ncc2cc1Br)NC1CCCCC1 [Compound 55, 1-[6-Bromo-2-(4-piperazin-1-yl-phenylamino)-pyrido[2,3-d]pyrimidin-7-yl]-3-cyclohexyl-urea]	195 °C (dec.)	151 nM	> 5000 nM	300 nM	> 5000 nM	> 5000 nM	33 nM	–	–
Cc1cc2cnc(Nc3ccc(N4C[C@@H](C)N[C@@H](C)C4)cc3)nc2nc1NC(=O)NC(C)(C)C [Compound 117, 1-tert-Butyl-3-{2-[4(cis-3,5-dimethyl-piperazin-1-yl)-phenylamino]-6-methyl-pyrido[2,3-d]pyrimidin-7-yl}-urea]	–	61 nM	> 5000 nM	76 nM	> 5000 nM	4000 nM	81 nM	–	–
CC(C)(C)NC(=O)Nc1ccc2cnc(Nc3ccc(N4CCNCC4)cc3)nc2n1 [Compound 1, 1-tert-Butyl-3-[2-(4-piperazin-1-yl-phenylamino)-pyrido[2,3-d]pyrimidin-7-yl]-urea]	–	–	60 nM	6 nM	219 nM	130 nM	593 nM	93.7%	94.4%
